# What was measured:
# [1] = applied as a suitable topical formulation
# [2] = solid-state properties of the crystalline salt (stability, hygroscopicity); format: physicochemical
smiles,measurement,setting,value
"C=CC1(C)CC(OC(=O)CSC2CC3CCC(C2)N3C)C2(C)C(C)CCC3(CCC(=O)C32)C(C)C1O.O=C(O)CCC(=O)O (stereo not drawn) [hydrosuccinate salt, hydrosuccinate salt of mutilin 14-(exo-8-methyl-8-azabicyclo[3.2.1]oct-3-ylsulfanyl)-acetate]",irritation,[1],does not cause significant irritation
same,hygroscopicity of the crystalline form,[2],non-hygroscopic
same,stability of the crystalline form,[2],stable

# From patent US8207191B2, “Process, salts, composition and use” (Glaxo Group Limited, priority 2003, dated 2012)
